Source: patent publication US10131652B2, “Pyrimidinyloxy benzene derivatives as herbicides” (E. I. DU PONT DE NEMOURS AND COMPANY, priority 2014, dated 2018)
Where two headings read alike, the source gives them in different places.

Key:
Assay in all cases: Test D pre-/postemergence plant response
Format in all cases: in vivo
[1] = test system: lambsquarters (Chenopodium album); settings: Chenopodium album; for pest or weed control at 31 g/ha: 31 g ai/ha; for pest or weed control at 62 g/ha: 62 g ai/ha; for pest or weed control at 125 g/ha: 125 g ai/ha
Procedure, shortened: (§1)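 Preemergence: seeds in loam/sand blend treated with test chemicals in non-phytotoxic solvent with surfactant; postemergence: plants at 2–18 cm (1- to 4-leaf stage) in peat-based medium sprayed likewise. Greenhouse 13 to 15 days, then visual rating vs controls, 0 (no effect) to 100 (complete control).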

[2] = test system: morningglory (Ipomoea coccinea); settings: Ipomoea; for pest or weed control at 31 g/ha: 31 g ai/ha; for pest or weed control at 62 g/ha: 62 g ai/ha; for pest or weed control at 125 g/ha: 125 g ai/ha
Procedure, shortened: as §1

[3] = test system: soybean (Glycine max); settings: Glycine max; for plant injury at 31 g/ha: 31 g ai/ha; for plant injury at 62 g/ha: 62 g ai/ha; for plant injury at 125 g/ha: 125 g ai/ha
Procedure, shortened: as §1

[4] = test system: waterhemp (common waterhemp, Amaranthus rudis); settings: Amaranthus tuberculatus; for pest or weed control at 31 g/ha: 31 g ai/ha; for pest or weed control at 62 g/ha: 62 g ai/ha; for pest or weed control at 125 g/ha: 125 g ai/ha
Procedure, shortened: as §1

[5] = test system: winter wheat (Triticum aestivum); settings: Triticum aestivum; for plant injury at 31 g/ha: 31 g ai/ha; for plant injury at 62 g/ha: 62 g ai/ha; for plant injury at 125 g/ha: 125 g ai/ha
Procedure, shortened: as §1

[6] = post-emergence, Postemergence, scale 0 to 100, 0 no effect, 100 complete control, read-out: Plant response rating, Lambsquarters
[7] = pre-emergence, Preemergence, scale 0 to 100 (0 no effect, 100 complete control), read-out: Plant response rating, Lambsquarters
[8] = post-emergence, Postemergence, scale 0 to 100, 0 no effect, 100 complete control, read-out: Plant response rating, Morningglory
[9] = pre-emergence, Preemergence, scale 0 to 100 (0 no effect, 100 complete control), read-out: Plant response rating, Morningglory
[10] = post-emergence, Postemergence, scale 0 to 100, 0 no effect, 100 complete control, read-out: Plant response rating, Soybean
[11] = pre-emergence, Preemergence, scale 0 to 100 (0 no effect, 100 complete control), read-out: Plant response rating, Soybean
[12] = post-emergence, Postemergence, scale 0 to 100, 0 no effect, 100 complete control, read-out: Plant response rating, Waterhemp
[13] = pre-emergence, Preemergence, scale 0 to 100 (0 no effect, 100 complete control), read-out: Plant response rating, Waterhemp
[14] = post-emergence, Postemergence, scale 0 to 100, 0 no effect, 100 complete control, read-out: Plant response rating, Wheat
[15] = pre-emergence, Preemergence, scale 0 to 100 (0 no effect, 100 complete control), read-out: Plant response rating, Wheat

`Fc1cccc(Oc2ncc(Cl)cn2)c1-c1cc(C(F)(F)F)on1` [Compound 168, 5-chloro-2-[2-[5-(trifluoromethyl)-3-isoxazolyl]-3-fluorophenoxy]pyrimidine] showed a pest or weed control at 31 g/ha ([1]; post-emergence, Postemergence, scale 0 to 100 (0 no effect, 100 complete control), read-out: Lambsquarters plant response rating) of 85%, a pest or weed control at 62 g/ha [1, 6] of 85% and a pest or weed control at 125 g/ha [1, 6] of 90%. For the same compound, the pest or weed control at 125 g/ha ([1]; pre-emergence, Preemergence, read-out: Plant response rating (scale 0 to 100), Lambsquarters) was 98%, the pest or weed control at 16 g/ha ([1]; pre-emergence, Preemergence, 16 g ai/ha, scale 0 to 100 (0 no effect, 100 complete control), read-out: Plant response rating, Lambsquarters) was 90% and the pest or weed control at 31 g/ha [1, 7] was 100%. For the same compound, the pest or weed control at 62 g/ha [1, 7] was 100%, the pest or weed control at 31 g/ha ([2]; post-emergence, Postemergence, scale 0 to 100 (0 no effect, 100 complete control), read-out: Morningglory plant response rating) was 85% and the pest or weed control at 62 g/ha [2, 8] was 85%. For the same compound, the pest or weed control at 125 g/ha [2, 8] was 85%, the pest or weed control at 125 g/ha ([2]; pre-emergence, Preemergence, read-out: Plant response rating (scale 0 to 100), Morningglory) was 100% and the pest or weed control at 16 g/ha ([2]; pre-emergence, Preemergence, 16 g ai/ha, scale 0 to 100 (0 no effect, 100 complete control), read-out: Plant response rating, Morningglory) was 5%. For the same compound, the pest or weed control at 31 g/ha [2, 9] was 70%, the pest or weed control at 62 g/ha [2, 9] was 80% and the plant injury at 31 g/ha ([3]; post-emergence, Postemergence, scale 0 to 100 (0 no effect, 100 complete control), read-out: Soybean plant response rating) was 75%. The plant injury at 62 g/ha [3, 10] was 40%, the plant injury at 125 g/ha [3, 10] was 90% and the plant injury at 125 g/ha ([3]; pre-emergence, Preemergence, read-out: Plant response rating (scale 0 to 100), Soybean) was 85%. The plant injury at 16 g/ha ([3]; pre-emergence, Preemergence, 16 g ai/ha, scale 0 to 100 (0 no effect, 100 complete control), read-out: Plant response rating, Soybean) was 5%, the plant injury at 31 g/ha [3, 11] was 30% and the plant injury at 62 g/ha [3, 11] was 55%. The pest or weed control at 31 g/ha ([4]; post-emergence, Postemergence, scale 0 to 100 (0 no effect, 100 complete control), read-out: Waterhemp plant response rating) was 90%, the pest or weed control at 62 g/ha [4, 12] was 98% and the pest or weed control at 125 g/ha [4, 12] was 98%. The pest or weed control at 125 g/ha ([4]; pre-emergence, Preemergence, read-out: Plant response rating (scale 0 to 100), Waterhemp) was 100%, the pest or weed control at 16 g/ha ([4]; pre-emergence, Preemergence, 16 g ai/ha, scale 0 to 100 (0 no effect, 100 complete control), read-out: Plant response rating, Waterhemp) was 100% and the pest or weed control at 31 g/ha [4, 13] was 100%. The pest or weed control at 62 g/ha [4, 13] was 100%, the plant injury at 31 g/ha ([5]; post-emergence, Postemergence, scale 0 to 100 (0 no effect, 100 complete control), read-out: Wheat plant response rating) was 10% and the plant injury at 62 g/ha [5, 14] was 30%. For the same compound, the plant injury at 125 g/ha [5, 14] was 35%, the plant injury at 125 g/ha ([5]; pre-emergence, Preemergence, read-out: Plant response rating (scale 0 to 100), Wheat) was 85% and the plant injury at 16 g/ha ([5]; pre-emergence, Preemergence, 16 g ai/ha, scale 0 to 100 (0 no effect, 100 complete control), read-out: Plant response rating, Wheat) was 0%. It also gave a plant injury at 31 g/ha [5, 15] of 5% and a plant injury at 62 g/ha [5, 15] of 45%.
